Results: paper PMC3116712 (ACS medicinal chemistry letters, 2011)

Columns and labels:
A/M2-V27A mutant channel = A/M2-V27A mutant channel (Influenza A virus, UniProt P0DOF5, V27A); type: cell-based
A/M2 S31N mutant = A/M2 S31N mutant (Influenza A virus, UniProt P0DOF5, S31N); type: cell-based

| SMILES | percentage inhibition against V27A mutant of A/M2 (A/M2-V27A mutant channel; 100 µM) | inhibitory effect on V27A mutant (in words) (A/M2-V27A mutant channel) | inhibitory effect on S31N mutant (in words) (A/M2 S31N mutant) |
| --- | --- | --- | --- |
| Cl.NC12CC3CC(CC(C3)C1)C2 [Amantadine, reference compound] | 0% |  |  |
| Cl.NC(CO)C12CC3CC(CC(C3)C1)C2 (stereo not drawn) [Compound 27] |  | no inhibitory effect | no inhibitory effect |
